According to US20120142645A1, “NEUROACTIVE STEROID COMPOSITIONS AND METHODS OF USE FOR LOWERING CHOLESTEROL” (priority 2009, published 2012):

Experiments:
[1] = single oral dose 175 mg; over the course of 4-8 hours; Roberts, 1995; cited from earlier work
[2] = Serum neurosteroid and steroid levels (GC/MS, RIA) at baseline and post-treatment; same trial; settings: for Serum Androstenedione level / Serum Cortisol level / Serum DHEA level / Serum DHEAS level / Serum PGS (pregnenolone sulfate) level / Serum Total testosterone level / Serum Estradiol level / Serum ALLO (allopregnanolone) level / Serum Free testosterone level / Serum PG (pregnenolone) level / Serum Progesterone level: mean ± SD; for Serum Estradiol level: n = 7; for Serum ALLO (allopregnanolone) level / Serum Free testosterone level / Serum PG (pregnenolone) level / Serum Progesterone level: n = 8; for Serum testosterone, free testosterone, cortisol, DHEA, estradiol, or androstenedione levels: after 8 weeks of pregnenolone vs baseline
Experimental: Study drug was dispensed every 2 weeks at each study visit at fixed escalating doses as follows: Visit 1: Two-week single-blind placebo lead-in phase, one placebo tablet twice each day (all pts), Visit 2: Randomization to PREG 50 mg twice each day (100 mg/day total) or placebo for 2 wks, Visit 3: PREG 150 mg twice each day (300 mg/day total) or placebo for 2 weeks, Visit 4: PREG 250 mg twice each day (500 mg/day total) or placebo for 2 weeks, Visit 5: PREG 250 mg twice each day (500 mg/day total) or placebo continued for 2 weeks. Patients thus received PREG 500 mg per day in divided doses during the last 4 weeks of the study. Patients also received the Hillside Adverse Events Scale at Visits 2-6, and during staggered telephone check-in calls every two weeks, beginning one week into the single-blind placebo lead-in phase.
Neurosteroid Analyses. […] One mL of serum was extracted three times in ethyl acetate prior to high performance liquid chromatography (HPLC) purification utilizing tetrahydrofuran, ethanol, and hexane in the mobile phase. All samples were injected in duplicate. […] All other serum steroid levels were determined utilizing commercially available radioimmunoassay (RIA) kits according to manufacturer directions (progesterone, cortisol, testosterone, free testosterone, and DHEAS: Diagnostic System Laboratories, Webster, Tex.). DHEA serum levels were determined utilizing a kit from ICN Pharmaceuticals (Costa Mesa, Calif.).
Statistical Analysis. Primary endpoints were changes from baseline at Visit 2 following a two-week placebo lead-in period (all patients) to final assessment at Visit 6 in cognitive symptoms (as assessed by BAGS and MATRICS composite scores) and negative symptoms (as assessed by SANS total scores). […] Student's t-tests were conducted on the change scores between treatment groups in this proof-of-concept study (two-tailed alpha p=0.05 for each statistical test).

[3] = after 8 weeks of pregnenolone, listed as Pregnenolone
[4] = after 8 weeks of pregnenolone, listed as pregnenolone

## CC(=O)[C@H]1CC[C@H]2[C@@H]3CC=C4C[C@@H](O)CC[C@]4(C)[C@H]3CC[C@]12C [PG, pregnenolone]
[1]
  Serum pregnenolone levels after single oral dose: approximately doubles
[2]; Week 0 (baseline)
  Serum Androstenedione level: 2.93 ± 1.30 ng/mL
  Serum Cortisol level: 8.08 ± 2.80 μg/100 ml
  Serum DHEA level: 7.85 ± 5.94 ng/mL
  Serum DHEAS level: 124.72 ± 86.52 μg/100 ml
  Serum PGS (pregnenolone sulfate) level: 33.4 ± 18.3 ng/mL
  Serum Total testosterone level: 302.83 ± 158.53 ng/100 ml
  Serum Estradiol level: 24.64 ± 6.21 pg/mL
  Serum ALLO (allopregnanolone) level: 110.7 ± 78.9 pg/mL
  Serum Free testosterone level: 7.96 ± 1.07 pg/mL
  Serum PG (pregnenolone) level: 499.9 ± 313.6 pg/mL
  Serum Progesterone level: 0.38 ± 0.15 ng/mL
[2]; Week 8
  Serum Androstenedione level: 3.01 ± 4.66 ng/mL
  Serum Cortisol level: 7.96 ± 3.85 μg/100 ml
  Serum DHEA level: 6.33 ± 3.26 ng/mL
  Serum DHEAS level: 144.87 ± 97.30 μg/100 ml
  Serum PGS (pregnenolone sulfate) level: 94.4 ± 14.3 ng/mL
  Serum Total testosterone level: 303.08 ± 156.05 ng/100 ml
  Serum Estradiol level: 25.42 ± 4.73 pg/mL
  Serum ALLO (allopregnanolone) level: 823.1 ± 528.9 pg/mL
  Serum Free testosterone level: 7.31 ± 2.04 pg/mL
  Serum PG (pregnenolone) level: 2096.0 ± 999.4 pg/mL
[2]; Week 8, listed as Pregnenolone
  Serum Progesterone level: 2.17 ± 0.64 ng/mL
[2]; Week 8, listed as pregnenolone
  Serum Progesterone level: 2.17 ng/mL
[2]; after 8 weeks of pregnenolone
  Increase in serum DHEAS levels over baseline: approximately 16%
  Increase in serum PGS levels over baseline: tripled
  Increase in serum progesterone over baseline: over four-fold
[2]; listed as Pregnenolone
  Serum testosterone, free testosterone, cortisol, DHEA, estradiol, or androstenedione levels: did not result in downstream elevations
[2]; listed as pregnenolone
  Serum testosterone, free testosterone, cortisol, DHEA, estradiol, or androstenedione levels: did not increase
[2]; [3]
  Elevation in serum levels of PG over baseline: approximately four-fold elevations
  Increase in serum ALLO over baseline: five-fold elevations
[2]; [4]
  Elevation in serum levels of PG over baseline: approximate four-fold increase
  Increase in serum ALLO over baseline: five-fold
